According to patent US20040044026A1, “3-Substituted quinuclidines and their use as nicotinic agonists” (priority 2000, published 2004):
Where a name gives a salt, the structure may show the parent alone. Read-outs that look alike come from different tables or passages of the source.

Experiments:
[1] = target: α4β2-subtype of nicotinic receptors (Rattus norvegicus, UniProt P09483+P12390); assay: in vitro inhibition of 3H-cytisine binding
Excerpt: the in vitro inhibition ^3H-cytisine binding, which is a standard assay for determining selective binding to α4β2 subtype of nicotinic receptors, and/or
(§1) Such standard assays are described in e.g. WO 99/21834.
(§2) In this example the affinity of compounds of the invention for nicotinic acetylcholine receptors are investigated using standard assays described in WO 99/21834.
Next the in vitro inhibition ^3H-cytisine binding, which is a standard assay for determining selective binding to α4β2-subtype of nicotinic receptors, was determined.

[2] = target: nicotinic receptors (non-selective); assay: in vitro inhibition of 3H-epibatidin binding; conditions: radioligand 3H-epibatidin
Excerpt: the in vitro inhibition of ^3H-epibatidin binding, which is a standard assay for determining non-selective binding to nicotinic receptors,
as §1, §2
First the in vitro inhibition of ^3H-epibatidin binding, which is a standard assay for determining non-selective binding to nicotinic receptors, was determined.

[3] = target: α7-subtype of nicotinic receptors (Rattus norvegicus, UniProt Q05941); assay: biochemical; assay type: binding
α7-subtype of nicotinic receptors, sequence (Q05941 23-502): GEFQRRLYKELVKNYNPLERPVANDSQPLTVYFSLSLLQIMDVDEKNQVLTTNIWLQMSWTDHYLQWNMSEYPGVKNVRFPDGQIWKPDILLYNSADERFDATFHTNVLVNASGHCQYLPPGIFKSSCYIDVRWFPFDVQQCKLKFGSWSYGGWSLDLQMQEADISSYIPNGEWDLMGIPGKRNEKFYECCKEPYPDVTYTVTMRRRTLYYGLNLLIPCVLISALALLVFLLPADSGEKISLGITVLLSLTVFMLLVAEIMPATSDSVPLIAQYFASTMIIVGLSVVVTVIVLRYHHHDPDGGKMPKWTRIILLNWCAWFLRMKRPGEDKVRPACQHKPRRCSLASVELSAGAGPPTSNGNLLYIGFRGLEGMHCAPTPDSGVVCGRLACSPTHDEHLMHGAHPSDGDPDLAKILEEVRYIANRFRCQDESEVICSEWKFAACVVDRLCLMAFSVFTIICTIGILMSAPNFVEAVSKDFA

α4β2-subtype of nicotinic receptors, sequence (P09483 31-630): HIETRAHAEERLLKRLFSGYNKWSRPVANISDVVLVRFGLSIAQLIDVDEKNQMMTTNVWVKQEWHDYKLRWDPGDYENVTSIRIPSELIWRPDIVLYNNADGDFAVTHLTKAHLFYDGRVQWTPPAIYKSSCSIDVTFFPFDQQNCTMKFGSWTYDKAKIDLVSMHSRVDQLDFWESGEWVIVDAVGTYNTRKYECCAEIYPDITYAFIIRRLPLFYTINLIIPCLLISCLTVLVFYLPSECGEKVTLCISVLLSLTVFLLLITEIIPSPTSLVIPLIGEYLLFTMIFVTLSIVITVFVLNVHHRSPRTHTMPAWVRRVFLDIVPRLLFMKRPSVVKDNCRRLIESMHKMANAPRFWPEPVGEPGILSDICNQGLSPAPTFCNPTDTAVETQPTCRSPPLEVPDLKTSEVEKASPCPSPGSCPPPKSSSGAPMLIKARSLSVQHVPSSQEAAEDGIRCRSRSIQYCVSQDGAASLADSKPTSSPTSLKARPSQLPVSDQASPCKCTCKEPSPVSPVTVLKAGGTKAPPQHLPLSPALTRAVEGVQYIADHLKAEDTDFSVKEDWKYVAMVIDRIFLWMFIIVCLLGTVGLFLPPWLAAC
α4β2-subtype of nicotinic receptors, sequence (P12390 25-500): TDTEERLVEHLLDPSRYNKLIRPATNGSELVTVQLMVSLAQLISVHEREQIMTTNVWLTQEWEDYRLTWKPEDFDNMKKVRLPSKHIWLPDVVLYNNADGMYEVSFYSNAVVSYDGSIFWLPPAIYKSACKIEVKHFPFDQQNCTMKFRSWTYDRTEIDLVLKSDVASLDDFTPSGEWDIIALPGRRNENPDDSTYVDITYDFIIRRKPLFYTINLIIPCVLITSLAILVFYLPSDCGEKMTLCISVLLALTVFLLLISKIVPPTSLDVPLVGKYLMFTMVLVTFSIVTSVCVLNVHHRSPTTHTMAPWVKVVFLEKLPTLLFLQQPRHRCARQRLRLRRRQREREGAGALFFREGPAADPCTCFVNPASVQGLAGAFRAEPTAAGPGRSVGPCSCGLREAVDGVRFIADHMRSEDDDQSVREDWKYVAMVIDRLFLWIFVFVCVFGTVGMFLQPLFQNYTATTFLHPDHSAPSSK

SMILES | IC50 [1] [µM] | IC50 [2] [µM] | IC50 [3] [µM] | IC50 ([1]; radioligand 3H-cytisine, read-out: in vitro Inhibition of Binding (IC50) 3H-cytisine binding) [µM]
c1ccc2cc(C3CN4CCC3CC4)ccc2c1 (racemic) [Compound C1, (±)-3-(2-Naphthyl)-quinuclidine fumaric acid salt] | 6 | 7.5 | 0.15 | –
C1=C(c2ccc3ccccc3c2)C2CCN1CC2 [Compound B1, 3-(2-Naphthyl)-quinuclidine-3-ene fumaric acid salt] | – | 17 | 0.058 | 10
